Assays:
[1] = system: Streptococcus pneumoniae (Chester, ATCC49619); assay: Broth microdilution MIC assay, Streptococcus pneumoniae; assay type: cell-based; conditions: Table AA; MIC score
[2] = system: Staphylococcus aureus MRSA (COL); assay type: cell-based; conditions: Table AA; MIC score
[3] = system: Enterococcus faecium (AGR15, ATCCBAA-2127); assay: Broth microdilution MIC assay, Enterococcus faecium; assay type: cell-based; conditions: Table BB; MIC score
[4] = system: Human keratinocytes (HaCaT cells); assay: Human cytotoxicity assay in vitro (CellTiter-Glo), keratinocytes; assay type: cell-based; conditions: keratinocyte cytotoxicity score; 24 h exposure
[5] = system: Human hepatocytes (HepaRG cells); assay: Human cytotoxicity assay in vitro (CellTiter-Glo), hepatocytes; assay type: cell-based; conditions: hepatocyte cytotoxicity score; 24 h exposure
[6] = system: Escherichia coli TolC mutant strain ΔtolC; assay type: cell-based; conditions: Table BB; MIC score
[7] = system: Staphylococcus aureus MSSA (Newman); assay: Broth microdilution MIC assay, MSSA; assay type: cell-based; conditions: Table AA; MIC score
[8] = system: moenomycin-resistant Staphylococcus aureus (from MRSA, COL); conditions: Table BB, MIC score
[9] = system: vancomycin-resistant Staphylococcus aureus (from MRSA, COL); assay: microbe, parasite or virus in culture; assay type: cell-based; conditions: Table BB; MIC score; vancomycin-resistant MRSA
[10] = system: linezolid-resistant Staphylococcus aureus (from MRSA, COL); assay: microbe, parasite or virus in culture; assay type: cell-based; conditions: Table BB; MIC score; linezolid-resistant MRSA
[11] = system: platensimycin-resistant Staphylococcus aureus (from MRSA, COL); assay: microbe, parasite or virus in culture; assay type: cell-based; conditions: read-out: MIC for the resistant strain
[12] = system: MRSA (COL) resistant to triclosan; assay: microbe, parasite or virus in culture; conditions: Staphylococcus aureus, read-out: MIC values of resistant strains

Fc1ccc(-c2ccc(-c3nc4ccccc4[nH]3)o2)c(F)c1 [Compound 122]
Antibacterial activity Streptococcus pneumoniae [1]: inactive | Antibacterial activity Staphylococcus aureus (MRSA) [2]: inactive

Cc1[nH]c(-c2ccc(-c3ccccc3OC(F)(F)F)o2)nc1-c1ccc(F)cc1 [Compound 23, 4-(4-Fluoro-phenyl)-5-methyl-2-[5-(2-trifluoromethoxy-phenyl)-furan-2-yl]-1H-imidazole]
antibacterial activity EFm [3]: 1 (the compound has an MIC100 of 20-50 μg/ml or an MIC50 of <10 μg/ml) | cytotoxicity cell line K [4]: 2 (compounds causing>50% inhibition of cell viability at 25 μM) | cytotoxicity cell line H [5]: 3

Cc1nc(-c2ccc(-c3ccc(Cl)c(OC(F)(F)F)c3)o2)[nH]c1-c1ccc(Cl)cc1 [Compound 44]
antibacterial activity EFm [3]: 1 (the compound has an MIC100 of 20-50 μg/ml or an MIC50 of <10 μg/ml) | cytotoxicity cell line H [5]: 2

Cc1ccccc1-c1cnc(-c2ccc(-c3ccccc3C(F)(F)F)o2)[nH]1 [Compound 69]
antibacterial activity EC Δ [6]: 1 (the compound has an MIC100 of 20-50 μg/ml or an MIC50 of <10 μg/ml) | cytotoxicity cell line K [4]: 1 (compounds causing less than 50% inhibition of cell viability at 50 μM) | cytotoxicity cell line H [5]: 2

Cc1[nH]c(-c2ccc(-c3ccc(OC(F)(F)F)c(Cl)c3)o2)nc1-c1ccc(Cl)cc1 [Compound 50]
Antibacterial activity Streptococcus pneumoniae [1]: 3 (the compound has an MIC100 of 2-5 μg/ml) | Antibacterial activity Staphylococcus aureus (MRSA) [2]: 2 (the compound has an MIC100 of 11-20 μg/ml) | Antibacterial activity Staphylococcus aureus (MSSA) [7]: 3 (the compound has an MIC100 of 3-10 μg/ml) | cytotoxicity cell line K [4]: 1 (compounds causing less than 50% inhibition of cell viability at 50 μM) | cytotoxicity cell line H [5]: 1 (compounds not causing a loss of viability at concentrations between 25 and 50 μM)

FC(F)(F)Oc1ccccc1-c1ccc(-c2nc(Cl)c(-c3ccccc3)[nH]2)o1 [Compound 64]
antibacterial activity MRSA strains with additional resistance to M [8]: 4 (the compound has an MIC of 1 μg/ml to 3 μg/ml for preventing bacterial growth 100% (MIC100)) | cytotoxicity cell line K [4]: 3 (compounds causing more than 50% inhibition of cell viability at 10 μM) | cytotoxicity cell line H [5]: 3 | antibacterial activity MRSA strains with additional resistance to V [9]: 4 (the compound has an MIC of 1 μg/ml to 3 μg/ml for preventing bacterial growth 100% (MIC100))

Cc1[nH]c(-c2ccc(-c3ccc(C(F)(F)F)cc3)o2)nc1-c1ccc(Cl)cc1 [Compound 47]
antibacterial activity EFm [3]: 1 (the compound has an MIC100 of 20-50 μg/ml or an MIC50 of <10 μg/ml) | cytotoxicity cell line K [4]: 2 (compounds causing>50% inhibition of cell viability at 25 μM) | cytotoxicity cell line H [5]: 1 (compounds not causing a loss of viability at concentrations between 25 and 50 μM)

Cc1nc(-c2ccc(-c3ccccc3OC(F)(F)F)o2)[nH]c1-c1ccccc1Cl [Compound 19]
antibacterial activity MRSA strains with additional resistance to L [10]: 3 (the compound has an MIC100 of 3-10 μg/ml) | cytotoxicity cell line K [4]: 0 (compounds not causing loss of cell viability at concentrations of 50 μM or higher) | cytotoxicity cell line H [5]: 3 | antibacterial activity MRSA strains with additional resistance to V [9]: 1 (the compound has an MIC100 of 20-50 μg/ml or an MIC50 of <10 μg/ml)

Cc1[nH]c(-c2ccc(-c3ccc(Cl)c(C(F)(F)F)c3)o2)nc1-c1ccc(F)cc1 [Compound 42]
antibacterial activity MRSA strains with additional resistance to M [8]: 4 (the compound has an MIC of 1 μg/ml to 3 μg/ml for preventing bacterial growth 100% (MIC100)) | antibacterial activity EFm [3]: 1 (the compound has an MIC100 of 20-50 μg/ml or an MIC50 of <10 μg/ml) | antibacterial activity MRSA strains with additional resistance to L [10]: 4 (the compound has an MIC of 1 μg/ml to 3 μg/ml for preventing bacterial growth 100% (MIC100)) | cytotoxicity cell line K [4]: 3 (compounds causing more than 50% inhibition of cell viability at 10 μM) | cytotoxicity cell line H [5]: 1 (compounds not causing a loss of viability at concentrations between 25 and 50 μM) | antibacterial activity MRSA strains with additional resistance to V [9]: 4 (the compound has an MIC of 1 μg/ml to 3 μg/ml for preventing bacterial growth 100% (MIC100))

CC12C[C@@]34C=CC(=O)[C@@](C)(CCC(=O)Nc5c(O)ccc(C(=O)O)c5O)C3[C@H](CC1C4)O2 (some centres unmarked) [platensimycin]
MIC [11]: > 10 mg/L

Cc1[nH]c(-c2ccc(-c3ccccc3F)s2)nc1-c1ccccc1 [Compound 15]
antibacterial activity EC Δ [6]: 1 (the compound has an MIC100 of 20-50 μg/ml or an MIC50 of <10 μg/ml) | cytotoxicity cell line K [4]: 1 (compounds causing less than 50% inhibition of cell viability at 50 μM) | cytotoxicity cell line H [5]: 1 (compounds not causing a loss of viability at concentrations between 25 and 50 μM)

Cc1[nH]c(-c2ccc(-c3ccc(C(F)(F)F)c(Cl)c3)o2)nc1-c1ccc(F)cc1 [Compound 49]
antibacterial activity MRSA strains with additional resistance to M [8]: 3 (the compound has an MIC100 of 3-10 μg/ml) | antibacterial activity EFm [3]: 1 (the compound has an MIC100 of 20-50 μg/ml or an MIC50 of <10 μg/ml) | antibacterial activity MRSA strains with additional resistance to L [10]: 2 (the compound has an MIC100 of 11-20 μg/ml) | cytotoxicity cell line K [4]: 2 (compounds causing>50% inhibition of cell viability at 25 μM) | cytotoxicity cell line H [5]: 3 | antibacterial activity MRSA strains with additional resistance to V [9]: 3 (the compound has an MIC100 of 3-10 μg/ml)

Cc1ccccc1-c1c[nH]c(-c2ccc(-c3ccccc3OC(F)(F)F)o2)n1 [Compound 66]
antibacterial activity MRSA strains with additional resistance to M [8]: 3 (the compound has an MIC100 of 3-10 μg/ml) | antibacterial activity MRSA strains with additional resistance to L [10]: 4 (the compound has an MIC of 1 μg/ml to 3 μg/ml for preventing bacterial growth 100% (MIC100)) | cytotoxicity cell line K [4]: 1 (compounds causing less than 50% inhibition of cell viability at 50 μM) | cytotoxicity cell line H [5]: 3 | antibacterial activity MRSA strains with additional resistance to V [9]: 3 (the compound has an MIC100 of 3-10 μg/ml)

Oc1cc(Cl)ccc1Oc1ccc(Cl)cc1Cl [triclosan]
MIC [12]: > 20 mg/L

Cc1[nH]c(-c2ccc(-c3ccccc3OC(F)(F)F)o2)nc1-c1ccc(Cl)cc1 [Compound 24]
antibacterial activity MRSA strains with additional resistance to M [8]: 3 (the compound has an MIC100 of 3-10 μg/ml) | antibacterial activity MRSA strains with additional resistance to L [10]: 3 (the compound has an MIC100 of 3-10 μg/ml) | cytotoxicity cell line K [4]: 2 (compounds causing>50% inhibition of cell viability at 25 μM) | cytotoxicity cell line H [5]: 2 | antibacterial activity MRSA strains with additional resistance to V [9]: 4 (the compound has an MIC of 1 μg/ml to 3 μg/ml for preventing bacterial growth 100% (MIC100))

CN(C)Cc1[nH]c(-c2ccc(-c3ccccc3C(F)(F)F)o2)nc1-c1ccccc1 [Compound 70]
Antibacterial activity Streptococcus pneumoniae [1]: 3 (the compound has an MIC100 of 2-5 μg/ml) | antibacterial activity EC Δ [6]: 3 (the compound has an MIC100 of 3-10 μg/ml) | Antibacterial activity Staphylococcus aureus (MRSA) [2]: 1 (the compound has an MIC100 of 20-50 μg/ml or an MIC50 of <10 μg/ml) | Antibacterial activity Staphylococcus aureus (MSSA) [7]: 1 (the compound has an MIC100 of 20-50 μg/ml or an MIC50 of <10 μg/ml) | antibacterial activity MRSA strains with additional resistance to M [8]: 1 (the compound has an MIC100 of 20-50 μg/ml or an MIC50 of <10 μg/ml) | antibacterial activity EFm [3]: 2 (the compound has an MIC100 of 11-20 μg/ml) | antibacterial activity MRSA strains with additional resistance to L [10]: 1 (the compound has an MIC100 of 20-50 μg/ml or an MIC50 of <10 μg/ml) | cytotoxicity cell line K [4]: 2 (compounds causing>50% inhibition of cell viability at 25 μM) | cytotoxicity cell line H [5]: 3 | antibacterial activity MRSA strains with additional resistance to V [9]: 1 (the compound has an MIC100 of 20-50 μg/ml or an MIC50 of <10 μg/ml)

Fc1ccc(-c2ccc(-c3nc4ccccc4[nH]3)o2)cc1 [Compound 121]
Antibacterial activity Streptococcus pneumoniae [1]: inactive | Antibacterial activity Staphylococcus aureus (MRSA) [2]: inactive
